Key:
IKZF2 = IKZF2 (Homo sapiens, UniProt Q96SW2+Q9UKS7); test: HEK293 HiBiT in vitro degradation of IKZF2; assay type: cell-based; set-up: expressed in transfected cells; conditions: for Dmax: HEK293, HEK293 HiBiT; for Dmax / IKZF2 Dmax: maximum degradation at the highest concentration tested; for DC50 / IKZF2 Dmax: HEK293 HiBiT; for DC50: 18-24 hr incubation, normalized to DMSO control, read-out: IKZF2 EC50
Procedure: (§1) In vitro degradation of IKZF1, IKZF2, and SALL4 was measured using HiBiT protein tagging and detection technology (Promega).
(§2) HiBit technology was used to develop the quantitative assays to measure the cellular IKZFs level by tagging an 11 amino acid HiBit peptides […] to the protein of interest. Reporter plasmids were generated by fusing a linker sequence ([…]) followed by the HiBit tag at the C-terminus of IKZF1, IKZF2, and SALL4. The fusion fragments were subsequently cloned into pcDNA5 pcDNA™5/FRT/TO plasmids (Thermo Fisher, cat #V652020) downstream of the tetracycline operator. The resulting plasmids were co-transfected with pOG44 Flp-Recombinase Expression Vector (Thermo Fisher, cat #V600520) into Flp-In™ T-REx HEK293 line (Thermo Fisher, cat #R78077) and a stable cell pool was selected by adding 100 µg/ml of Hygromycin (Thermo Fisher, cat #10687010). The reporter cell enabled Tet-On inducible reporter expression from a single copy of the integrated gene.
(§3) On Day 1, Cells were grown to ˜80% confluency in tissue culture medium (DMEM Glutamax (Gibco10569), 10% Tet free FBS (Takara 631106), and PenStrep Glutamin (Gibco 10378)) in tissue culture flasks. Doxycycline was then added to a final concentration of […] to induce reporter expression at 37° C. overnight.
(§4) On Day 2, 125 nL of serially-diluted solution of testing compounds were dispensed into 384-well white solid assay plates via ECHO acoustic liquid handler. Cells were lifted by 0.25% Trypsin (Gibco 25200) then pelleted by centrifugation (Beckman Avanti J-E) at 500×g for 5 min. Cell pellets were resuspended in TC medium at the concentration of 3e5/mL and 25 μL of cell suspension were added into each well of compound-spotted plates. The plates were returned to a 37° C. incubator overnight (18-24 hr).
(§5) On Day 3, assay plates were removed from the tissue culture incubator and 25 μL of Nano-Glo lytic detection system (Promega, cat #N3030) was added to each well. Plates were incubated at r.t. for 3 min with shaking, and luminescence was read using an Envision reader (Perkin Elmer).
(§6) To assess the IKZF1, IKZF2, and SALL4 degrader potential of exemplified compounds of this disclosure and certain Reference Compounds EC50 and Dmax values were determined for the compounds of Examples 1 to 383 and Reference Compounds A-1, B-1, B-2, B-3, B-4, and C-1 in the HiBiT assays. Asterisks (*) indicate examples for which the data shown represents an average of n≥3.

IKZF1 = molecular target: T1, IKZF1 (Homo sapiens, UniProt Q13422+Q96SW2); test: HEK293 HiBiT in vitro degradation of IKZF1; assay type: cell-based; conditions: for Dmax: HEK293, HEK293 HiBiT; for Dmax / IKZF1 Dmax: maximum degradation at the highest concentration tested; for DC50 / IKZF1 Dmax: HEK293 HiBiT; for DC50: 18-24 hr incubation, normalized to DMSO control, read-out: IKZF1 EC50
T1 construct: expressed in transfected cells
T1 sequence (Q13422 whole entry): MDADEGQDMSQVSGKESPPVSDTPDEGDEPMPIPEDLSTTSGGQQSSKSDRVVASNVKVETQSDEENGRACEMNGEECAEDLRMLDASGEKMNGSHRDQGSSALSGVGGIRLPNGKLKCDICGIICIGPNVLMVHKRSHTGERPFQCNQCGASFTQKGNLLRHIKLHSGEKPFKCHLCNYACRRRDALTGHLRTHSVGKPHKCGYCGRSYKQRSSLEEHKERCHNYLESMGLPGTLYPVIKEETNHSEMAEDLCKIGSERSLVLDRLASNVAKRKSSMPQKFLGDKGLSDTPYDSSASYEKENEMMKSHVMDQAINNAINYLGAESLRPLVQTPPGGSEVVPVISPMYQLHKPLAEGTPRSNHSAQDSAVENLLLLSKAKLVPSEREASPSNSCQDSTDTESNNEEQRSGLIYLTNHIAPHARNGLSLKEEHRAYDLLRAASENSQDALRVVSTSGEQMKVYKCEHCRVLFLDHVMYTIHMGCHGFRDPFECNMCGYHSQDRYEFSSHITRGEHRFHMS
T1 sequence (Q96SW2 whole entry): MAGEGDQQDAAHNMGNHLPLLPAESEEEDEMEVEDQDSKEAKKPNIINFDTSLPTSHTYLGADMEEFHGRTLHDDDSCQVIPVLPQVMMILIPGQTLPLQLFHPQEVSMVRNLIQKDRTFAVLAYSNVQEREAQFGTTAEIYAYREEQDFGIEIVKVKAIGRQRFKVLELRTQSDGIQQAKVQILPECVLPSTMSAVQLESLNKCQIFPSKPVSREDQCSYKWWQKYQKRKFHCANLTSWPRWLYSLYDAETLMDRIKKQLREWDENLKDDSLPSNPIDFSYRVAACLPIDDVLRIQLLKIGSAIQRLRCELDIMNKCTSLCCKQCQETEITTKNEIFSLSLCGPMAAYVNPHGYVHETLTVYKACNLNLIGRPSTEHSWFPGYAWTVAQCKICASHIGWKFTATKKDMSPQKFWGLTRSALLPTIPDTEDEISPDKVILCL
T1 sequence (Q16531 whole entry partner): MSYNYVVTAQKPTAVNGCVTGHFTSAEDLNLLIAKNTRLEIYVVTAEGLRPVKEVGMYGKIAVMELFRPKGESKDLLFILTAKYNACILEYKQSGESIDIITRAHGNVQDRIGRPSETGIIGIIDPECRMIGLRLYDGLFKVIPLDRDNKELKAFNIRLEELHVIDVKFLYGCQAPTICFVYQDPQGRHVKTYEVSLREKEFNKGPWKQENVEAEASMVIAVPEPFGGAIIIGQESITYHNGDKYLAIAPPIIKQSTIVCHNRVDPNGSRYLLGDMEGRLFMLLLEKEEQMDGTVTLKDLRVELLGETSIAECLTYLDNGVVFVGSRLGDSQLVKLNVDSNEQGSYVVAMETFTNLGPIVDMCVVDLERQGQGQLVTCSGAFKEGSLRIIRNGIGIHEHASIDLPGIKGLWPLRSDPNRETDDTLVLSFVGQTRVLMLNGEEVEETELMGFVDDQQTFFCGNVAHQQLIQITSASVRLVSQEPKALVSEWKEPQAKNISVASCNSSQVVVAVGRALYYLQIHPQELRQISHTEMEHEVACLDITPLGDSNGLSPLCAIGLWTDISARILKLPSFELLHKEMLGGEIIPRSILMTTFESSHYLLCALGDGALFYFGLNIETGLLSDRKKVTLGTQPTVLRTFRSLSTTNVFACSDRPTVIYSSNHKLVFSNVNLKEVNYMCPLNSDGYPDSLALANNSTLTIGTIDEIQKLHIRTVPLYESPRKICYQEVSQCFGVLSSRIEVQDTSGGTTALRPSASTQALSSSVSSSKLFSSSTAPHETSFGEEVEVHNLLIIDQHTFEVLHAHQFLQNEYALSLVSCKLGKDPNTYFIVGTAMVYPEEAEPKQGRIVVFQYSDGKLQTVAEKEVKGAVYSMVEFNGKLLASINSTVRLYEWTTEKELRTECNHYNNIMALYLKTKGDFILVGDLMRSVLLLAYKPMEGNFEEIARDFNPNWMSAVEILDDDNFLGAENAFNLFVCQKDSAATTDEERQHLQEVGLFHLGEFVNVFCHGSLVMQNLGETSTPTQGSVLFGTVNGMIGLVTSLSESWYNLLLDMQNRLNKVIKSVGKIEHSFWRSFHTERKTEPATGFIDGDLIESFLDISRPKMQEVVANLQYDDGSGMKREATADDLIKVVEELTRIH
Procedure: as §1, §2, §3, §4, §5, §6

Sequence of IKZF2 (Q9UKS7 1-500 isoform Q9UKS7-2): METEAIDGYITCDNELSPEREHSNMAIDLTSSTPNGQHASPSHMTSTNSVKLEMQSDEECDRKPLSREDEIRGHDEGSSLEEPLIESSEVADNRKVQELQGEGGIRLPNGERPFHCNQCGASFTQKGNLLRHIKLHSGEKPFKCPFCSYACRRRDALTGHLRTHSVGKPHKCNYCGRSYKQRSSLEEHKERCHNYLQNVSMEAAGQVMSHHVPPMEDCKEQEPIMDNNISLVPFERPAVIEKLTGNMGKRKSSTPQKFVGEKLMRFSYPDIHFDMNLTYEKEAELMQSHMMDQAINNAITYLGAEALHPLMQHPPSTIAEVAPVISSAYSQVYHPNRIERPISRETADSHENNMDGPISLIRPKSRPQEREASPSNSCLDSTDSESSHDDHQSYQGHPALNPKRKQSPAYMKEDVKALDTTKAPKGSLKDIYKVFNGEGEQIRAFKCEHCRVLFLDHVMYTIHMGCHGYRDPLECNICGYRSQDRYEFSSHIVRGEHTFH
Sequence of IKZF2 (Q96SW2 whole entry): as the sequence (Q96SW2 whole entry) above
Sequence of IKZF2 (Q16531 whole entry partner): as the sequence (Q16531 whole entry partner) above

Structure (SMILES)	Dmax (IKZF2)	DC50 (IKZF2)	Dmax (IKZF1)	DC50 (IKZF1)	IKZF2 Dmax (IKZF2)	IKZF1 Dmax (IKZF1)
CC1CCC(N[C@H]2CCCC[C@@H]2Cc2ccc3c(c2)CN(C2CCC(=O)NC2=O)C3=O)CC1 (single isomer, unassigned) [Example 279]	95%	3 nM	30%	51 nM	–	–
CC1CCC(N[C@H]2CCCC[C@@H]2Cc2ccc3c(c2)CN(C2CCC(=O)NC2=O)C3=O)CC1 (single isomer, unassigned) [Example 280]	–	3 nM	–	70 nM	98%	29%
O=C1CCC(N2Cc3c(ccc(C[C@H]4OCCC[C@@H]4NC4CCC(C(F)F)CC4)c3F)C2=O)C(=O)N1 (single isomer, unassigned) [Example 282]	95%	7 nM	–	> 1000 nM	–	–
CC(C)OC1CCC(N[C@H]2CCCO[C@@H]2Cc2ccc3c(c2F)CN(C2CCC(=O)NC2=O)C3=O)CC1 (single isomer, unassigned) [Example 284]	97%	5 nM	–	> 1000 nM	–	–
CC(C)OC1CCC(N[C@H]2CCCO[C@@H]2Cc2ccc3c(c2F)CN(C2CCC(=O)NC2=O)C3=O)CC1 (single isomer, unassigned) [Example 285]	–	8 nM	37%	124 nM	94%	–
O=C1CCC(N2Cc3cc(C[C@H]4CCCC[C@@H]4NC4CCC45COC5)ccc3C2=O)C(=O)N1 (single isomer, unassigned) [Example 286]	96%	27 nM	33%	223 nM	–	–
CCC(C)N[C@H]1CCCO[C@@H]1Cc1ccc2c(c1F)CN(C1CCC(=O)NC1=O)C2=O (single isomer, unassigned) [Example 292]	94%	7 nM	–	> 1000 nM	–	–
CCC(C)N[C@H]1CCCO[C@@H]1Cc1ccc2c(c1F)CN(C1CCC(=O)NC1=O)C2=O (single isomer, unassigned) [Example 293]	–	8 nM	–	> 1000 nM	94%	–
CCC(C)N[C@H]1CCCC[C@@H]1Cc1ccc2c(c1F)CN(C1CCC(=O)NC1=O)C2=O (single isomer, unassigned) [Example 294]	97%	2 nM	59%	912 nM	–	–
CCC(C)N[C@H]1CCCC[C@@H]1Cc1ccc2c(c1F)CN(C1CCC(=O)NC1=O)C2=O (single isomer, unassigned) [Example 295]	–	1 nM	–	283 nM	97%	43%
O=C1CCC(N2Cc3c(ccc(C[C@H]4OCCC[C@@H]4NC4CCOC4)c3F)C2=O)C(=O)N1 (single isomer, unassigned) [Example 296]	86%	105 nM	–	> 1000 nM	–	–
O=C1CCC(N2Cc3c(ccc(C[C@H]4OCCC[C@@H]4NC4CCOC4)c3F)C2=O)C(=O)N1 (single isomer, unassigned) [Example 297]	–	101 nM	–	> 1000 nM	84%	–
CC(N[C@H]1CCCO[C@@H]1Cc1ccc2c(c1F)CN(C1CCC(=O)NC1=O)C2=O)C1CCOCC1 (single isomer, unassigned) [Example 298]	–	55 nM	–	> 1000 nM	76%	–
CCC(C)N[C@H]1CCCC[C@@H]1Cc1ccc2c(c1)CN(C1CCC(=O)NC1=O)C2=O (single isomer, unassigned) [Example 300]	–	4 nM	–	> 1000 nM	97%	–
COC1(C)CCC(N[C@H]2CCCO[C@@H]2Cc2ccc3c(c2F)CN(C2CCC(=O)NC2=O)C3=O)CC1 (single isomer, unassigned) [Example 317]	–	6 nM	33%	243 nM	94%	–

The next lines start with the values.

Dmax (IKZF2)	DC50 (IKZF2)	Dmax (IKZF1)	DC50 (IKZF1)	IKZF2 Dmax (IKZF2)	IKZF1 Dmax (IKZF1)	Structure (SMILES)
95%	7 nM	40%	261 nM	–	–	O=C1CCC(N2Cc3c(ccc(C[C@H]4OCCC[C@@H]4NC4CCC(OC(F)F)CC4)c3F)C2=O)C(=O)N1 (single isomer, unassigned) [Example 326]
97%	3 nM	–	> 1000 nM	–	–	O=C1CC[C@H](N2Cc3cc(C[C@H]4CCCC[C@@H]4NC4CCCCC4)ccc3C2=O)C(=O)N1 (single isomer, unassigned) [Example 336]
95%	5 nM	–	> 1000 nM	–	–	O=C1CC[C@@H](N2Cc3cc(C[C@H]4CCCC[C@@H]4NC4CCCCC4)ccc3C2=O)C(=O)N1 (single isomer, unassigned) [Example 337]
92%	6 nM	–	> 1000 nM	–	–	O=C1CC[C@H](N2Cc3c(ccc(C[C@H]4OCCC[C@@H]4NC4CCCCC4)c3F)C2=O)C(=O)N1 (single isomer, unassigned) [Example 338]
93%	11 nM	–	> 1000 nM	–	–	O=C1CC[C@@H](N2Cc3c(ccc(C[C@H]4OCCC[C@@H]4NC4CCCCC4)c3F)C2=O)C(=O)N1 (single isomer, unassigned) [Example 339]
76%	49 nM	–	> 1000 nM	–	–	O=C1CCC(N2Cc3cc(C[C@H]4OCCC[C@@H]4NC4CCC(C(F)(F)F)CC4)ccc3C2=O)C(=O)N1 (single isomer, unassigned) [Example 356]
–	23 nM	40%	465 nM	89%	–	O=C1CCC(N2Cc3cc(C[C@H]4OCCC[C@@H]4NC4CCC(C(F)(F)F)CC4)ccc3C2=O)C(=O)N1 (single isomer, unassigned) [Example 357]
100%	18 nM	34%	231 nM	–	–	O=C1CCC(N2Cc3cc(C[C@H]4CCCC[C@@H]4NC4CCc5cn[nH]c5C4)ccc3C2=O)C(=O)N1 (single isomer, unassigned) [Example 358]
–	9 nM	–	249 nM	101%	43%	O=C1CCC(N2Cc3cc(C[C@H]4CCCC[C@@H]4NC4CCc5cn[nH]c5C4)ccc3C2=O)C(=O)N1 (single isomer, unassigned) [Example 359]
90%	139 nM	–	> 1000 nM	–	–	O=C1CCC(N2Cc3c(ccc(C[C@H]4OCCC[C@@H]4NC4CCc5cn[nH]c5C4)c3F)C2=O)C(=O)N1 (single isomer, unassigned) [Example 360]
–	34 nM	–	> 1000 nM	102%	–	O=C1CCC(N2Cc3c(ccc(C[C@H]4OCCC[C@@H]4NC4CCc5cn[nH]c5C4)c3F)C2=O)C(=O)N1 (single isomer, unassigned) [Example 361]
–	3 nM	–	122 nM	95%	43%	O=C1CCC(N2Cc3c(ccc(C[C@H]4OCCC[C@@H]4NC4CCC5(CC4)CC5(F)F)c3F)C2=O)C(=O)N1 (single isomer, unassigned) [Example 365]
95%	10 nM	53%	117 nM	–	–	CC(N[C@H]1CCCC[C@@H]1Cc1ccc2c(c1)CN(C1CCC(=O)NC1=O)C2=O)C1CCS(=O)(=O)CC1 (single isomer, unassigned) [Example 370]
–	62 nM	–	461 nM	94%	50%	CC(N[C@H]1CCCC[C@@H]1Cc1ccc2c(c1)CN(C1CCC(=O)NC1=O)C2=O)C1CCS(=O)(=O)CC1 (single isomer, unassigned) [Example 371]
